Tests used:
human renal renin = biological target: T1, human renal renin (Homo sapiens, UniProt P00797); test: Inhibition of human renal renin in vitro (angiotensin I formed, radioimmunoassay); format: biochemical; conditions: human angiotensinogen substrate, 37 degrees C., pH 6.0
T1 construct: human renal renin, free from acid proteolytic activity; from tissue
T1 sequence (P00797 67-406): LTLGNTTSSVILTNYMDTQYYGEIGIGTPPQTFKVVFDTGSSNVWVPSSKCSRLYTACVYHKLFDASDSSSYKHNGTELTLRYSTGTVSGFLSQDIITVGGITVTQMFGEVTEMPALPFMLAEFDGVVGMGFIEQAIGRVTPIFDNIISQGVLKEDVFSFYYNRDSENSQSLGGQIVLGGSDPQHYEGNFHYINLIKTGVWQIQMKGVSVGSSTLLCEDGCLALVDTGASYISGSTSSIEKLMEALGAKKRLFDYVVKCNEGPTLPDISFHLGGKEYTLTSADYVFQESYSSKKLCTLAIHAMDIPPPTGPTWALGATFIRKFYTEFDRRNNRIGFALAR
Method: The novel compounds of the present invention are also useful for treating congestive heart failure. […] At the end of the incubation, the amount of angiotensin I formed is measured by radioimmunoassay and the molar concentration required to cause 50% inhibition, expressed as the IC50, is calculated.

Plasma Renin Activity = test: Plasma renin activity in salt depleted monkeys following oral dosing; format: in vivo, cynomolgous monkeys; conditions: oral 3 mg/kg
Method: (§1) The ability of the compounds of the invention to decrease blood pressure and plasma renin activity in vivo can be determined using the following method.
(§2) Male cynomolgous monkeys housed under constant temperature and lighting conditions and weighing 3-5 kg were instrumented with chronic indwelling arterial and venous catheters. Following pretreatment by salt-depletion, the monkeys were dosed by nasogastric tube with 3 mg/kg of the compound of Example 152.

[1] = Blood pressure in salt depleted monkeys following oral dosing; format: in vivo, cynomolgous monkeys; conditions: oral 3 mg/kg
Method: as §1, §2

[2] = Mean of three monkeys, time 0 min
[3] = Mean of three monkeys, time 5 min
[4] = Mean of three monkeys, time 15 min
[5] = Mean of three monkeys, time 30 min
[6] = Mean of three monkeys, time 60 min
[7] = Mean of three monkeys, time 90 min
[8] = Mean of three monkeys, time 120 min
[9] = Mean of three monkeys, time 180 min
[10] = Mean of three monkeys, time 360 min

IC50 (human renal renin): 0.55 nM
SMILES: CC1COC(C(O)C(CC2CCCCC2)NC(=O)C(Cc2cscn2)N2CCCC(Cc3ccccc3)(NS(=O)(=O)N3CCN(C)CC3)C2=O)C1 [Example 152, (2S1-((3S)-((N-methylpiperazinsulfonyl)amino-3-phenylmethyl-2-oxo-1-piperidinyl)-3-(4-thiazolyl)propionic acid amide of (2S,4S,1'R,2'S)-2-(2'-amino-3'-cyclohexyl-1'-hydroxypropyl)-4-methyltetrahydrofuran]
Plasma Renin Activity (PRA) (Plasma Renin Activity; [2]): 21.7 ng/mL/h
Plasma Renin Activity (PRA) (Plasma Renin Activity; [3]): 0.8 ng/mL/h
Plasma Renin Activity (PRA) (Plasma Renin Activity; [4]): 0.2 ng/mL/h
Plasma Renin Activity (PRA) (Plasma Renin Activity; [5]): 0.0 ng/mL/h
Plasma Renin Activity (PRA) (Plasma Renin Activity; [6]): 0.0 ng/mL/h
Plasma Renin Activity (PRA) (Plasma Renin Activity; [7]): 0.0 ng/mL/h
Plasma Renin Activity (PRA) (Plasma Renin Activity; [8]): 0.1 ng/mL/h
Plasma Renin Activity (PRA) (Plasma Renin Activity; [9]): 0.1 ng/mL/h
Plasma Renin Activity (PRA) (Plasma Renin Activity; [10]): 0.5 ng/mL/h
Plasma Renin Activity (PRA) (Plasma Renin Activity; Monkey 1, time 0 min): 12.6 ng/mL/h
Plasma Renin Activity (PRA) (Plasma Renin Activity; Monkey 1, time 5 min): 2.2 ng/mL/h
Plasma Renin Activity (PRA) (Plasma Renin Activity; Monkey 1, time 15 min): 0.44 ng/mL/h
Plasma Renin Activity (PRA) (Plasma Renin Activity; Monkey 1, time 30 min): 0.0 ng/mL/h
Plasma Renin Activity (PRA) (Plasma Renin Activity; Monkey 1, time 60 min): 0.0 ng/mL/h
Plasma Renin Activity (PRA) (Plasma Renin Activity; Monkey 1, time 90 min): 0.1 ng/mL/h
Plasma Renin Activity (PRA) (Plasma Renin Activity; Monkey 1, time 120 min): 0.0 ng/mL/h
Plasma Renin Activity (PRA) (Plasma Renin Activity; Monkey 1, time 180 min): 0.1 ng/mL/h
Plasma Renin Activity (PRA) (Plasma Renin Activity; Monkey 1, time 360 min): 0.2 ng/mL/h
Plasma Renin Activity (PRA) (Plasma Renin Activity; Monkey 2, time 0 min): 34.2 ng/mL/h
Plasma Renin Activity (PRA) (Plasma Renin Activity; Monkey 2, time 5 min): 0.1 ng/mL/h
Plasma Renin Activity (PRA) (Plasma Renin Activity; Monkey 2, time 15 min): 0.0 ng/mL/h
Plasma Renin Activity (PRA) (Plasma Renin Activity; Monkey 2, time 30 min): 0.0 ng/mL/h
Plasma Renin Activity (PRA) (Plasma Renin Activity; Monkey 2, time 60 min): 0.0 ng/mL/h
Plasma Renin Activity (PRA) (Plasma Renin Activity; Monkey 2, time 90 min): 0.0 ng/mL/h
Plasma Renin Activity (PRA) (Plasma Renin Activity; Monkey 2, time 120 min): 0.3 ng/mL/h
Plasma Renin Activity (PRA) (Plasma Renin Activity; Monkey 2, time 180 min): 0.2 ng/mL/h
Plasma Renin Activity (PRA) (Plasma Renin Activity; Monkey 2, time 360 min): 0.7 ng/mL/h
Plasma Renin Activity (PRA) (Plasma Renin Activity; Monkey 3, time 0 min): 18.4 ng/mL/h
Plasma Renin Activity (PRA) (Plasma Renin Activity; Monkey 3, time 5 min): 0.1 ng/mL/h
Plasma Renin Activity (PRA) (Plasma Renin Activity; Monkey 3, time 15 min): 0.2 ng/mL/h
Plasma Renin Activity (PRA) (Plasma Renin Activity; Monkey 3, time 30 min): 0.0 ng/mL/h
Plasma Renin Activity (PRA) (Plasma Renin Activity; Monkey 3, time 60 min): 0.1 ng/mL/h
Plasma Renin Activity (PRA) (Plasma Renin Activity; Monkey 3, time 90 min): 0.0 ng/mL/h
Plasma Renin Activity (PRA) (Plasma Renin Activity; Monkey 3, time 120 min): 0.0 ng/mL/h
Plasma Renin Activity (PRA) (Plasma Renin Activity; Monkey 3, time 180 min): 0.1 ng/mL/h
Plasma Renin Activity (PRA) (Plasma Renin Activity; Monkey 3, time 360 min): 0.7 ng/mL/h
Blood Pressure (BP) [1, 2]: 86 mmHg
Blood Pressure (BP) [1, 3]: 85 mmHg
Blood Pressure (BP) [1, 4]: 79 mmHg
Blood Pressure (BP) [1, 5]: 74 mmHg
Blood Pressure (BP) [1, 6]: 73 mmHg
Blood Pressure (BP) [1, 7]: 76 mmHg
Blood Pressure (BP) [1, 8]: 77 mmHg
Blood Pressure (BP) [1, 9]: 79 mmHg
Blood Pressure (BP) [1, 10]: 83 mmHg
Blood Pressure (BP) ([1]; Monkey 1, time 0 min): 75 mmHg
Blood Pressure (BP) ([1]; Monkey 1, time 5 min): 75 mmHg
Blood Pressure (BP) ([1]; Monkey 1, time 15 min): 75 mmHg
Blood Pressure (BP) ([1]; Monkey 1, time 30 min): 71 mmHg
Blood Pressure (BP) ([1]; Monkey 1, time 60 min): 70 mmHg
Blood Pressure (BP) ([1]; Monkey 1, time 90 min): 74 mmHg
Blood Pressure (BP) ([1]; Monkey 1, time 120 min): 68 mmHg
Blood Pressure (BP) ([1]; Monkey 1, time 180 min): 72 mmHg
Blood Pressure (BP) ([1]; Monkey 1, time 360 min): 72 mmHg
Blood Pressure (BP) ([1]; Monkey 2, time 0 min): 105 mmHg
Blood Pressure (BP) ([1]; Monkey 2, time 5 min): 99 mmHg
Blood Pressure (BP) ([1]; Monkey 2, time 15 min): 92 mmHg
Blood Pressure (BP) ([1]; Monkey 2, time 30 min): 82 mmHg
Blood Pressure (BP) ([1]; Monkey 2, time 60 min): 85 mmHg
Blood Pressure (BP) ([1]; Monkey 2, time 90 min): 85 mmHg
Blood Pressure (BP) ([1]; Monkey 2, time 120 min): 80 mmHg
Blood Pressure (BP) ([1]; Monkey 2, time 180 min): 92 mmHg
Blood Pressure (BP) ([1]; Monkey 2, time 360 min): 93 mmHg
Blood Pressure (BP) ([1]; Monkey 3, time 0 min): 77 mmHg
Blood Pressure (BP) ([1]; Monkey 3, time 5 min): 82 mmHg
Blood Pressure (BP) ([1]; Monkey 3, time 15 min): 69 mmHg
Blood Pressure (BP) ([1]; Monkey 3, time 30 min): 69 mmHg
Blood Pressure (BP) ([1]; Monkey 3, time 60 min): 65 mmHg
Blood Pressure (BP) ([1]; Monkey 3, time 90 min): 70 mmHg
Blood Pressure (BP) ([1]; Monkey 3, time 120 min): 82 mmHg
Blood Pressure (BP) ([1]; Monkey 3, time 180 min): 72 mmHg
Blood Pressure (BP) ([1]; Monkey 3, time 360 min): 84 mmHg

Reference: patent US5164388A, “Heterocyclic peptide renin inhibitors” (Abbott Laboratories, priority 1991, dated 1992)
